Key:
[1] = ref [38]; cited from earlier work
From the text: Taxanes, mainly paclitaxel and docetaxel, are well-known microtubule stabilizers used in various cancer including ovarian and endometrial cancer first-line therapies in the last thirty years. […] Here, the new chemical entity TH1902 is distinct from the docetaxel molecule as it selectively exploits SORT1’s internalization properties to trigger cell apoptosis in ES-2 and ...

[2] = test system: A2780 ovarian cancer xenografts; test: A2780 ovarian cancer xenograft tumor growth; format: in vivo, human tumor in female athymic nude mice; conditions: single agent 10 mg/kg IV bi-weekly
From the text: Animals were obtained from Charles River Laboratories, Inc. and allowed to acclimate for 5 days before experiments. Female CD-1 nude mice (Crl:CD1-Foxn1^nu, 4–6 weeks old; ES-2) or athymic nude mice (Crl:NU(NCr)-Foxn1^nu, 4–6 weeks old; SKOV3, A2780, AN3-CA) were used for the xenograft tumor models. Mice were maintained in a pathogen-free environment and handled in accordance with the Guidelines of the Canadian Council on Animal Care. Animal protocols were approved by the Institutional Animal Care and Use Committee of Université du Québec à Montréal (0620-C1R1-897-0621).
Tumor xenografts were established by subcutaneous inoculation of 5 × 10^6 cells (ES-2) or 7 × 10^6 cells (SKOV3) in 150 µL of HBSS; other xenografts were established by subcutaneous inoculation of 5 × 10^6 cells (A2780) or 2 × 10^6 cells (AN3-CA) in 150 µL of HBSS/Matrigel (50:50). All cells were injected into the right flanks of immunodeficient mice under light isoflurane anesthesia. The injection schedules and doses of injected substances are detailed in the figures. Briefly, when palpable ES-2, SKOV3 or AN3-CA tumors reached a volume of ~100 mm^3, mice were treated weekly with either vehicle, docetaxel (3.75 or 15 mg/kg) or TH1902 (8.75 or 35 mg/kg) at equivalent docetaxel amounts via intravenous (IV) tail vein injection. Note that three cycles of 15 mg/kg docetaxel is the maximum tolerated dose in mice and that 35 mg/kg TH1902 contains the same quantity of docetaxel (bis-linked to the peptide). In A2780 xenografts, when palpable tumors reached a volume of ~250 mm^3, mice were treated with either vehicle, paclitaxel (10 mg/kg, IV), carboplatin (40 mg/kg, intraperitoneal (IP)), docetaxel (10 mg/kg, IV) or TH1902 (23 mg/kg, IV) bi-weekly as single agents or once on Day-0 as combinations with carboplatin. For combination treatments, both taxanes and TH1902 were injected 1 h following carboplatin administrations at the doses previously described. Injectable solutions were prepared as follows: TH1902 was solubilized at 10 mg/mL in 10% Tween-80 in D5W (pH 4.3, w/v) then further diluted with D5W; docetaxel was solubilized at 25 mg/mL in ethanol and Tween-80 (50/50, v/v) then further diluted with D5W; paclitaxel was solubilized at 25 mg/mL in ethanol and Cremophor EL (50/50, v/v) then further diluted in saline; carboplatin was solubilized at 50 mg/mL in water then further diluted in a solution of 30% PEG400 and 5% Tween-80 in D5W (w/v); vehicle composition and preparation mimicked highest dose of TH1902 preparation. Tumor growth was monitored by two-dimensional measurements taken with an electronic caliper and tumor volume was calculated according to the following formula: tumor volume (mm^3) = π/6 × length × width^2. Data are expressed as mean ± SEM and were analyzed using GraphPad Prism software.
Figure 8 Effects of TH1902 and carboplatin combinations on A2780 ovarian cancer xenografts. A2780 cells were subcutaneously implanted in the flanks of athymic nude mice. Tumor volume measurements following bi-weekly administrations of (A) vehicle, docetaxel, TH1902, paclitaxel or carboplatin as single agents, or (B) administered once in combination using the same dosage as described in the methods section. Colored dots below indicate drug treatments for all groups. Data are represented as mean ± SEM (n = 5 mice/group).

[3] = test system: SORT1 in ES-2 ovarian cancer cells; test: Competition of TH19P01-Alexa^488 uptake, ES-2; format: cell-based, human; conditions: 10 µM neurotensin, 2 h, n = 4
Procedure: (§1) Cells were grown in 12-well plates in complete media for 24 h. Where required, cells were transiently transfected with 100 nM of siRNA (either a scrambled, control siRNA, or one that was directed against a particular mRNA) for 24 h using Lipofectamine 2000. Cells were next washed with PBS and then incubated in HBSS without phenol red for 2 h at 37 °C in the presence or absence of 200 nM Alexa^488-labeled TH19P01 peptide. Alexa^488-labeled TH19P01 peptide uptake was also measured with or without competition by an excess of unlabeled TH19P01 peptide (50 µM) or neurotensin (10 µM) during a 2 h uptake before washing with serum-free media. Cell fluorescence was evaluated in the FL1 channel using a C6 Accuri flow cytometer (BD Biosciences, Mississauga, ON, Canada).
(§2) Figure 4 Internalization of TH19P01-Alexa^488 peptide by SORT1 in ovarian cancer cell lines. […] (B) Uptake of TH19P01-Alexa^488 into two ovarian cancer cell lines was measured in the presence of excess concentrations of substrates known to bind to SORT1 (50 µM TH19P01 and 10 µM neurotensin). […] Results are expressed as normalized RFU according to measurements of control wells. […]

[4] = test system: SORT1 in SKOV3 ovarian cancer cells; test: Competition of TH19P01-Alexa^488 uptake, SKOV3; format: cell-based, human; conditions: 10 µM neurotensin, 2 h, n = 4
Procedure: as §1, §2

Molecule	Water solubility [1]	Tumor growth inhibition [2]	Tumor progression, Size Increase (x-Fold Day-0) ([2]; vehicle group endpoint, n = 5 mice/group)	TH19P01-Alexa^488 uptake with neurotensin [3]	TH19P01-Alexa^488 uptake with neurotensin [4]
CC(=O)O[C@H]1C(=O)[C@@]2(C)[C@H]([C@H](OC(=O)c3ccccc3)[C@]3(O)C[C@H](OC(=O)[C@H](O)[C@@H](NC(=O)c4ccccc4)c4ccccc4)C(C)=C1C3(C)C)[C@]1(OC(C)=O)CO[C@@H]1C[C@@H]2O [Paclitaxel, paclitaxel]	very poor water solubility	36%	4.21 x-Fold Day-0		
neurotensin: known ligand of SORT1, synthesized in-house				reduced	reduced
